We go through 5 compounds from ChEMBL document CHEMBL1142930, “Cyathane diterpenes from Sarcodon cyrneus and evaluation of their activities of neuritegenesis and nerve growth factor production” (2007).

Activity calls are given as the source filed them. No cut-off for these calls is given here.

A short description of assay [1]: Induction of NGF gene expression in human 1321N1 cells at 200 uM relative to control. The assay is classed as functional.
Assay [2] deals with PC-12. In words: Stimulation of neurite outgrowth in rat PC12 cells assessed as morphological change at 200 uM after 24 hrs. Format: functional, cell-based.

Consider `CC(C)C1=CC(=O)[C@]2(C)CC[C@]3(C)C(=CC=C(C=O)C[C@@H]3O)[C@H]12` [GLAUCOPINE C], for which, in assay [1], the Fold change turned out to be 3.5. Also, in assay [2], the result was inactive.
The matching figures for `CC(C)C1=CC(=O)[C@]2(C)CC[C@@]3(C)C(=O)CC(C=O)=CC[C@@H]3[C@]12O` [CYRNEINE D]: 1.3 and “inactive”.
In the case of `CC(C)C1=CC(=O)[C@]2(C)CC[C@@]3(C)C(=O)CC(C=O)=CC[C@@H]3[C@H]12` [CYRNEINE C], the Fold change in assay [1] is listed as 2.7. The result in assay [2] was inactive.
In turn, `CC(C)C1=C2C3=CC=C(C=O)C[C@H](O)[C@]3(C)CC[C@@]2(C)[C@H](O)C1` [CYRNEINE A] showed a Fold change in assay [1] of 3.8.
Take `CC(C)C1=CC(=O)[C@]2(C)CC[C@]3(C)C(=CC=C(C=O)C[C@@H]3O)[C@]12O` [CYRNEINE B]: the Fold change in assay [1] came out at 7.3.
